Measured values reported in ChEMBL document CHEMBL1138016, “Azaadamantane benzamide 5-HT4 agonists: gastrointestinal prokinetic SC-54750” (Bioorg Med Chem Lett, 2004).

How the values were obtained:
[1] = target: T1, Adrenergic receptor alpha-2 (Homo sapiens, UniProt P08913+P18825+P18089); test: Concentration required for inhibition of alpha-2 adrenergic receptor; type: protein assay
T1 sequence (P08913 whole entry): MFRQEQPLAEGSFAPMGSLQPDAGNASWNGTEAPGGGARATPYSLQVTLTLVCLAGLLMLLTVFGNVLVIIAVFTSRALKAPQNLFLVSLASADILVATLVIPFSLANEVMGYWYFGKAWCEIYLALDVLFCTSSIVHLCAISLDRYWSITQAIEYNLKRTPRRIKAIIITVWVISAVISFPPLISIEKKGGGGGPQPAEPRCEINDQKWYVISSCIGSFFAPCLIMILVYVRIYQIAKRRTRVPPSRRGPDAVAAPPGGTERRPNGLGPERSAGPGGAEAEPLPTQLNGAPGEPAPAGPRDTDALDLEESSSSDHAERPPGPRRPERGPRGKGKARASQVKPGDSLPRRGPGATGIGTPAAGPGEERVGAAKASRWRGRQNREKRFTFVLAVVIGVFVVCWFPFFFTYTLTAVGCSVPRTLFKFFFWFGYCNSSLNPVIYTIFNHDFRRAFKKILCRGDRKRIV
T1 sequence (P18825 whole entry): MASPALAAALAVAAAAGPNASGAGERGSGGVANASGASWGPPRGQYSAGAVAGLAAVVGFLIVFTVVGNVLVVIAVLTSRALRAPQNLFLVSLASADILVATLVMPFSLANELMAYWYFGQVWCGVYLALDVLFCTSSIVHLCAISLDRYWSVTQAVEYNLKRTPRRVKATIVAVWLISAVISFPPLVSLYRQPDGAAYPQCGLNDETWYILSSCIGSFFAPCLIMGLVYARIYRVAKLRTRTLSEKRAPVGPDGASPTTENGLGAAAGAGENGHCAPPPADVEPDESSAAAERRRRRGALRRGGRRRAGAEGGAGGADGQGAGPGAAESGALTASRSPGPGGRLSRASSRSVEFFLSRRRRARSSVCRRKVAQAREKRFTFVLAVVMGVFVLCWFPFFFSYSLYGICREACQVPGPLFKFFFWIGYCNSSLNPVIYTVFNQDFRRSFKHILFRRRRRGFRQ
T1 sequence (P18089 whole entry): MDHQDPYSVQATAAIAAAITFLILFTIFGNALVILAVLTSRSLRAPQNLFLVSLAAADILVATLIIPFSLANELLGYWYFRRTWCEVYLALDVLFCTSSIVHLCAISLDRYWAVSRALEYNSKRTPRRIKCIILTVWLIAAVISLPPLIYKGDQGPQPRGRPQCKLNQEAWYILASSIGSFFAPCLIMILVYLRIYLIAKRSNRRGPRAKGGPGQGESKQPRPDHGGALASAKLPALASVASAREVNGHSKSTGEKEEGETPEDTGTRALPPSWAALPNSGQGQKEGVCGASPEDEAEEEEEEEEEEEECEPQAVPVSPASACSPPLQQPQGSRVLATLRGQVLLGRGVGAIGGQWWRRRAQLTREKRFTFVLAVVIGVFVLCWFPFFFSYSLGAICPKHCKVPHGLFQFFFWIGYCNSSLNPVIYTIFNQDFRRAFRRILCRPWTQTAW

Adrenergic receptor beta = Adrenergic receptor beta (Homo sapiens, UniProt P08588+P07550+P13945); test: Concentration required for inhibition of beta adrenergic receptor; type: protein assay
[2] = target: T2, Serotonin 3 (5-HT3) receptor (Rattus norvegicus, UniProt P35563+Q9JJ16); test: Binding affinity towards 5-hydroxytryptamine 3 receptor using [3H]GR-65630 as the radioligand in male rat cortical tissue; type: protein-complex assay
T2 sequence (P35563 whole entry): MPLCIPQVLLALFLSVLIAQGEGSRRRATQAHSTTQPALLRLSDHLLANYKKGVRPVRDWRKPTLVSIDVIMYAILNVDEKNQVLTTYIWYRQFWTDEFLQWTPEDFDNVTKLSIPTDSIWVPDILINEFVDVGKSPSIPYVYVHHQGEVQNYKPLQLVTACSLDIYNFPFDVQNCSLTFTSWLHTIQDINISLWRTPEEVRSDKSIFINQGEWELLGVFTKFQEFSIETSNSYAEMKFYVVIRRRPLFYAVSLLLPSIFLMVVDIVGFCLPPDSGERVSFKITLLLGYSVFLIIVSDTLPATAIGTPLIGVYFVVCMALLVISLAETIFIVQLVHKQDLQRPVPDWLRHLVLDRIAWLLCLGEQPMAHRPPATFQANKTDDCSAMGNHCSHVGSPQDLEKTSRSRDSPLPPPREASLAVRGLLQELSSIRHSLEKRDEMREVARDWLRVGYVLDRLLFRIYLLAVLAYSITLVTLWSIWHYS
T2 sequence (Q9JJ16 whole entry): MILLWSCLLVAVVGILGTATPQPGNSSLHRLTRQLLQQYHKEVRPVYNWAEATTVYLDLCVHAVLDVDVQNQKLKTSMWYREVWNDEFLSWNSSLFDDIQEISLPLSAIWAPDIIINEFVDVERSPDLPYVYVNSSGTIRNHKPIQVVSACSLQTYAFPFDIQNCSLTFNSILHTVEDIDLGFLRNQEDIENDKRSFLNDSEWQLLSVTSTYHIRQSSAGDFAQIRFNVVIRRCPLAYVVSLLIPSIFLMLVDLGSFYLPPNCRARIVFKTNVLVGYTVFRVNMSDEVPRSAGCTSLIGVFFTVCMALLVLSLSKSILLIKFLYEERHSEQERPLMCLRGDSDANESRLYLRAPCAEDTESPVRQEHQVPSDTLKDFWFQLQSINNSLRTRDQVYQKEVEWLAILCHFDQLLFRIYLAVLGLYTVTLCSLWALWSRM

[3] = Concentration required for inhibition of 5-hydroxytryptamine 3 receptor using [3H]GR-65630 as the radioligand

| Structure (SMILES) | IC50 [1] | IC50 (Adrenergic receptor beta) | Ki [2] | IC50 [3] |
| --- | --- | --- | --- | --- |
| COc1cc(N)c(Cl)cc1C(=O)NCC1C2CC3CC1CN(C3)C2 (stereo in doubt; 9c) | > 10000 nM | > 10000 nM | 25.4 nM | 3.5 nM |
| COc1cc(N)c(Cl)cc1C(=O)NC1C2CC3CC1CN(C3)C2 (stereo in doubt; 9b) | > 10000 nM | > 10000 nM | 9 nM | 18 nM |
| COc1cc(N)c(Cl)cc1C(=O)NC1C2CC3CC1CN(C3)C2 (stereo in doubt; 9a) | 6400 nM | > 10000 nM | 336 nM | 672 nM |
